Assay results: PMC7824571, “Probing the Effects of the FGFR-Inhibitor Derazantinib on Vascular Development in Zebrafish Embryos” (Pharmaceuticals, 2020)
Entries after “also recorded” stand apart in the source; their conditions may differ.

Legend:
[1] = tested on: developing vasculature in the zebrafish embryo; experiment: Vascular development in zebrafish embryos (confocal / time-lapse imaging of transgenic lines); details: 0.1–0.3 μM in swimming water
zebrafish embryos = experiment: Zebrafish embryo lethality; details: above a concentration of 1 μM
Procedure: Similarly, DMSO solutions (100 μM) of infigratinib (BGJ398) or vatalanib (PTK/ZK) were diluted in fish water to achieve concentrations of 0.1–0.3 μM. The compounds were added to embryo fish water E3 (5 mM NaCl, 0.17 mM KCl, 0.33 mM CaCl2, 0.33 mM MgSO4, pH 7.0) at 8–10 hpf onwards, before the onset of endothelial cell specification, as previously described.

in vitro = details: zebrafish, zebrafish embryo homogenate (1:20 in MilliQ water)
[2] = Binding to mouse plasma protein
[3] = %PPB-Mouse (plasma protein binding)

| SMILES | ISV sprouting angiogenesis [1] | ISV-Aorta Connections [1] | Lumenization [1] | Blood flow ([1]; listed as Vatalanib) | ISV sprouting angiogenesis ([1]; listed as Vatalanib) | embryo lethality (zebrafish embryos) | fraction unbound at 20 h, 1 μM (in vitro) | fraction unbound ([2]; %Fu-PPB, free unbound) | fraction unbound [2, 3] | Anastomosis [1] | Blood flow [1] | Cell cycle [1] | Cell junctions [1] | Blood flow ([1]; listed as Infigratinib) | Cell cycle ([1]; listed as Infigratinib) | ISV sprouting angiogenesis ([1]; listed as Infigratinib) |
| --- | --- | --- | --- | --- | --- | --- | --- | --- | --- | --- | --- | --- | --- | --- | --- | --- |
| Clc1ccc(Nc2nnc(Cc3ccncc3)c3ccccc23)cc1 [vatalanib] | dramatically reduced | No defects | Moderate defects | dramatic defects in blood vessel function; also recorded: Moderate defects | Strong defects | 80–90% | 0.0995 ± 0.0131 | 0.041 ± 0.0018 | 0.0413 | – | – | – | – | – | – | – |
| CCN1CCN(c2ccc(Nc3cc(N(C)C(=O)Nc4c(Cl)c(OC)cc(OC)c4Cl)ncn3)cc2)CC1 [infigratinib] | did not have any effect | Moderate defects | Mild defects | – | – | – | 0.0497 ± 0.0082 | 0.013 | 0.013 | Moderate/strong defects | mild impediment of blood flow | inhibited cell cycle progression | Mild defects | Mild defects | Moderate defects | No defects |
